What all share (type): in vivo
Assay [1] deals with Alopecurus myosuroides (ALOMY). Description: Post-emergence herbicidal glasshouse test. Particulars: post-emergence (sprayed after 8 days cultivation), evaluated after 13 days, 100=total damage to plant, 0=no damage to plant; for POST Application ALOMY, damage to plant: 1000 g/ha; for pest or weed control at 1000 g/ha: Alopecurus myosuroides, 312 h, read-out: POST Application ALOMY, damage to plant. Summed up: (§1)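 Pots of SETFA, SOLNI, AMARE and ALOMY sprayed 1 day (pre-) or 8 days (post-emergence) after sowing at 1000 g/ha, formulated in acetone/water (50:50) with 0.5% Tween 20. Glasshouse at 24/16° C day/night, 14 h light, 65% humidity. Damage scored 0–100 after 13 days.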

The test system of assay [2] is Solanum nigrum (SOLNI). Description: Post-emergence herbicidal glasshouse test. Particulars: post-emergence (sprayed after 8 days cultivation), evaluated after 13 days, 100=total damage to plant, 0=no damage to plant; for POST Application SOLNI, damage to plant: 1000 g/ha; for pest or weed control at 1000 g/ha: Solanum nigrum, 312 h, read-out: POST Application SOLNI, damage to plant. A digest of the protocol: as §1

In assay [3] the test system is Echinochloa crus-galli (ECHCG). Description: Post-emergence herbicidal glasshouse test. Particulars: post-emergence (sprayed after 8 days cultivation), evaluated after 13 days, 100=total damage to plant, 0=no damage to plant; for POST Application ECHCG, damage to plant: 1000 g/ha; for pest or weed control at 1000 g/ha: Echinochloa crus-galli, 312 h, read-out: POST Application ECHCG, damage to plant. Summed up:
(§2)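 Glasshouse pots at 24/16 °C day/night, 14 h photoperiod and 65% humidity were treated once at 1000 g/ha, using 0.5% Tween 20 in acetone/water 50:50, before (1 d) or after (8 d) emergence. Phytotoxicity was scored 0–100 at 13 days.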

Assay [4] deals with Setaria faberi (SETFA). Description: Post-emergence herbicidal glasshouse test. Particulars: post-emergence (sprayed after 8 days cultivation), evaluated after 13 days, 100=total damage to plant, 0=no damage to plant; for POST Application SETFA, damage to plant: 1000 g/ha; for pest or weed control at 1000 g/ha: Setaria faberi, 312 h, read-out: POST Application SETFA, damage to plant. A digest of the protocol: as §1

The subject of assay [5] is Amaranthus retoflexus (AMARE). Description: Post-emergence herbicidal glasshouse test. Particulars: post-emergence (sprayed after 8 days cultivation), evaluated after 13 days, 100=total damage to plant, 0=no damage to plant; for POST Application AMARE, damage to plant: 1000 g/ha; for pest or weed control at 1000 g/ha: Amaranthus retroflexus, 312 h, read-out: POST Application AMARE, damage to plant. Summed up:
as §1

In assay [6] the test system is Alopecurus myosuroides (ALOMY). Description: Pre-emergence herbicidal glasshouse test. Particulars: pre-emergence (sprayed after one day cultivation), evaluated after 13 days, 100=total damage to plant, 0=no damage to plant; for PRE Application ALOMY, damage to plant: 1000 g/ha; for pest or weed control at 1000 g/ha: Alopecurus myosuroides, 312 h, read-out: PRE Application ALOMY, damage to plant. Summed up:
as §1

Assay [7] relates to Solanum nigrum (SOLNI). Description: Pre-emergence herbicidal glasshouse test. Particulars: pre-emergence (sprayed after one day cultivation), evaluated after 13 days, 100=total damage to plant, 0=no damage to plant; for PRE Application SOLNI, damage to plant: 1000 g/ha; for pest or weed control at 1000 g/ha: Solanum nigrum, 312 h, read-out: PRE Application SOLNI, damage to plant. Summed up: as §1

Assay [8] has as its system Echinochloa crus-galli (ECHCG). Description: Pre-emergence herbicidal glasshouse test. The conditions noted are these: pre-emergence (sprayed after one day cultivation), evaluated after 13 days, 100=total damage to plant, 0=no damage to plant; for PRE Application ECHCG, damage to plant: 1000 g/ha; for pest or weed control at 1000 g/ha: Echinochloa crus-galli, 312 h, read-out: PRE Application ECHCG, damage to plant. A digest of the protocol: as §2

Assay [9] has as its system Setaria faberi (SETFA). Description: Pre-emergence herbicidal glasshouse test. The conditions noted are these: pre-emergence (sprayed after one day cultivation), evaluated after 13 days, 100=total damage to plant, 0=no damage to plant; for PRE Application SETFA, damage to plant: 1000 g/ha; for pest or weed control at 1000 g/ha: Setaria faberi, 312 h, read-out: PRE Application SETFA, damage to plant. A digest of the protocol: as §1

Assay [10] deals with Amaranthus retoflexus (AMARE). Description: Pre-emergence herbicidal glasshouse test. The conditions noted are these: pre-emergence (sprayed after one day cultivation), evaluated after 13 days, 100=total damage to plant, 0=no damage to plant; for PRE Application AMARE, damage to plant: 1000 g/ha; for pest or weed control at 1000 g/ha: Amaranthus retroflexus, 312 h, read-out: PRE Application AMARE, damage to plant. A digest of the protocol: as §1

Regarding `Cc1nc2nc(C(F)(F)Cl)c(C(=O)C3C(=O)CCCC3=O)cc2cc1F` [Compound 1.87, 2-(2-chlorodifluoromethyl-6-fluoro-7-methyl-[1,8]-naphthyridine-3-carbonyl)-cyclohexane-1,3-dione], in assay [1], the “POST Application ALOMY, damage to plant” value stood at 70. The “POST Application SOLNI, damage to plant” value in the assay on Solanum nigrum (SOLNI) [2] turned out to be 90. The “POST Application ECHCG, damage to plant” value in [3] was found to be 90. The “POST Application SETFA, damage to plant” value with Setaria faberi (SETFA) [4] came to 80. Besides, the “POST Application AMARE, damage to plant” value in assay [5] amounted to 80. For the same compound, in assay [6], the “PRE Application ALOMY, damage to plant” value was found to be 60. Also, the “PRE Application SOLNI, damage to plant” value in the assay with Solanum nigrum (SOLNI) [7] was 100. Besides, in assay [8], the “PRE Application ECHCG, damage to plant” value was found to be 100. Moreover, in the assay on Setaria faberi (SETFA) [9], the “PRE Application SETFA, damage to plant” value worked out at 100. For the same compound, the “PRE Application AMARE, damage to plant” value in assay [10] turned out to be 100.
As to `Cc1nc2nc(C(F)(F)F)c(C(=O)C3C(=O)CCCC3=O)cc2c(C)c1F` [Compound 1.88, 2-[5,7-dimethyl-6-fluoro-2-trifluoromethyl-[1,8]-naphthyridine-3-carbony]-cyclohexane-1,3-dione], the pest or weed control at 1000 g/ha in [1] turned out to be 30%; in the assay with Solanum nigrum (SOLNI) [2] it was 90%; in assay [3], 90%; in the assay with Setaria faberi (SETFA) [4], 80%; in assay [5] it was 100%; in assay [6] it was 40%. The pest or weed control at 1000 g/ha in the assay with Solanum nigrum (SOLNI) [7] worked out at 100%; in [8] it was 100%; with Setaria faberi (SETFA) [9] it was 100%; in assay [10], 90%.
In the case of `Cc1ccc2cc(C(=O)C3C(=O)CCCC3=O)c(C(F)(F)Cl)nc2n1` [Compound 1.89, 2-[2-chlorodifluoromethyl-7-methyl [1,8]-naphthyridine-3-carbony]-cyclohexane-1,3-dione], the “POST Application ALOMY, damage to plant” value in [1] was found to be 70. Also, the “POST Application SOLNI, damage to plant” value in the assay with Solanum nigrum (SOLNI) [2] is given as 90. For the same compound, the “POST Application ECHCG, damage to plant” value in assay [3] came to 90. Further, the “POST Application SETFA, damage to plant” value with Setaria faberi (SETFA) [4] is 80. Besides, in assay [5], the “POST Application AMARE, damage to plant” value is listed as 100. The “PRE Application ALOMY, damage to plant” value in assay [6] is recorded as 40. Besides, the “PRE Application SOLNI, damage to plant” value in the assay on Solanum nigrum (SOLNI) [7] is 100. Further, the “PRE Application ECHCG, damage to plant” value in [8] is recorded as 100. Further, the “PRE Application SETFA, damage to plant” value in the assay with Setaria faberi (SETFA) [9] is listed as 100. Besides, the “PRE Application AMARE, damage to plant” value in assay [10] is 100.
As to `O=C1CCCC(=O)C1C(=O)c1cc2cc(F)c(NCC(F)(F)F)nc2nc1C(F)(F)F` [Compound 1.90, 2-[6-fluoro-7-(2,2,2-trifluoroethylamino)-2-trifluoromethyl-[1,8]-naphthyridine-3-carbony]-cyclohexane-1,3-dione], the pest or weed control at 1000 g/ha in assay [1] was found to be 80%; in the assay with Solanum nigrum (SOLNI) [2], 90%; in assay [3], 90%; with Setaria faberi (SETFA) [4] it was 90%; in assay [5], 80%; in [6], 70%. Further, the pest or weed control at 1000 g/ha (in the assay with Solanum nigrum (SOLNI) [7]; in [8]; in the assay with Setaria faberi (SETFA) [9]; in assay [10]) was 100% in each case.
For the compound `Cc1nc2nc(C(F)(F)OCC(F)(F)F)c(C(=O)C3C(=O)CCCC3=O)cc2cc1F` [Compound 1.91, 2-[6-fluoro-7-methyl-2[(2,2,2-trifluoroethoxy)difluoromethyl]-[1,8]-naphthyridine-3-carbony]-cyclohexane-1,3-dione], the “POST Application ALOMY, damage to plant” value in assay [1] worked out at 40. Further, the “POST Application SOLNI, damage to plant” value in the assay with Solanum nigrum (SOLNI) [2] was determined as 90. The “POST Application ECHCG, damage to plant” value in assay [3] is 80. Moreover, the “POST Application SETFA, damage to plant” value in the assay on Setaria faberi (SETFA) [4] is 80. Moreover, the “POST Application AMARE, damage to plant” value in [5] is 90. The “PRE Application ALOMY, damage to plant” value in [6] is recorded as 10. In addition, the “PRE Application SOLNI, damage to plant” value with Solanum nigrum (SOLNI) [7] came to 100. Moreover, in assay [8], the “PRE Application ECHCG, damage to plant” value is given as 100. In addition, the “PRE Application SETFA, damage to plant” value in the assay on Setaria faberi (SETFA) [9] is listed as 90. The “PRE Application AMARE, damage to plant” value in [10] turned out to be 100.

The values above are taken from patent US8461083B2, “Herbicidal compounds” (Syngenta Limited, priority 2008, dated 2013).
